Key:
Experiment in all cases: relative viability (nuclei count vs DMSO), 5 days (fraction); higher = more cells survive
BI-D1870 + Olaparib = compound: CC(C)CCN1c2nc(Nc3cc(F)c(O)c(F)c3)ncc2N(C)C(=O)C1C [BI-D1870] + O=C(c1cc(Cc2n[nH]c(=O)c3ccccc23)ccc1F)N1CCN(C(=O)C2CC2)CC1 [Olaparib] (partner 8 µM)
Outline: (§1)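 Lung cancer cell lines in 1536-well plates got either a single drug or a fixed anchor-drug dose together with five library-drug doses (not always all listed) in √10 steps, by pin tool, on the day after seeding. Nuclei were counted after 5 days, and relative viability is the treated-to-vehicle ratio of nuclei counts. Values are medians of duplicate plates.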

Zebularine + Vorinostat = compound: O=c1ncccn1[C@@H]1O[C@H](CO)[C@@H](O)[C@H]1O [Zebularine] + O=C(CCCCCCC(=O)Nc1ccccc1)NO [Vorinostat] (partner 1 µM)
Outline: as §1

BI-D1870 + Pemetrexed = compound: CC(C)CCN1c2nc(Nc3cc(F)c(O)c(F)c3)ncc2N(C)C(=O)C1C [BI-D1870] + Nc1nc2[nH]cc(CCc3ccc(C(=O)N[C@@H](CCC(=O)O)C(=O)O)cc3)c2c(=O)[nH]1 [Pemetrexed] (partner 0.2 µM)
Outline: as §1

Zebularine + Pictilisib = compound: O=c1ncccn1[C@@H]1O[C@H](CO)[C@@H](O)[C@H]1O [Zebularine] + CS(=O)(=O)N1CCN(Cc2cc3nc(-c4cccc5[nH]ncc45)nc(N4CCOCC4)c3s2)CC1 [Pictilisib] (partner 1 µM)
Outline: as §1

Cell Line | relative viability (BI-D1870 + Olaparib; first compound 0.04 µM) | relative viability (BI-D1870 + Olaparib; first compound 0.1265 µM) | relative viability (BI-D1870 + Olaparib; first compound 0.4 µM) | relative viability (BI-D1870 + Olaparib; first compound 1.265 µM) | relative viability (BI-D1870 + Olaparib; first compound 4 µM) | relative viability (Zebularine + Vorinostat; first compound 1 µM) | relative viability (Zebularine + Vorinostat; first compound 3.162 µM) | relative viability (Zebularine + Vorinostat; first compound 31.62 µM) | relative viability (Zebularine + Vorinostat; first compound 100 µM) | relative viability (BI-D1870 + Pemetrexed; first compound 0.04 µM) | relative viability (BI-D1870 + Pemetrexed; first compound 0.1265 µM) | relative viability (BI-D1870 + Pemetrexed; first compound 0.4 µM) | relative viability (BI-D1870 + Pemetrexed; first compound 1.265 µM) | relative viability (BI-D1870 + Pemetrexed; first compound 4 µM) | relative viability (Zebularine + Pictilisib; first compound 1 µM) | relative viability (Zebularine + Pictilisib; first compound 3.162 µM) | relative viability (Zebularine + Pictilisib; first compound 10 µM) | relative viability (Zebularine + Pictilisib; first compound 31.62 µM) | relative viability (Zebularine + Pictilisib; first compound 100 µM) | relative viability (Zebularine + Vorinostat; first compound 10 µM)
HCC-78 | 0.662 | 0.932 | 0.682 | 0.971 | 0.68 | 0.535 | 0.462 | 0.444 | 0.337 | 1.06 | 0.889 | 0.947 | 0.916 | 0.919 | 0.223 | 0.192 | 0.211 | 0.254 | 0.197 | 
HCC-366 | 0.503 | 0.348 | 0.295 | 0.42 | 0.229 | 0.488 | 0.372 | 0.343 | 0.184 | 0.148 | 0.174 | 0.215 | 0.176 | 0.118 | 0.16 | 0.133 | 0.119 | 0.177 | 0.124 | 0.26
HCC-827 | 0.71 | 0.649 | 0.594 | 0.634 | 0.626 | 1.04 | 0.811 | 0.478 | 0.361 | 0.184 | 0.31 | 0.241 | 0.254 | 0.141 | 1.19 | 0.977 | 0.835 | 0.738 | 0.544 | 0.77
HOP-62 | 0.545 | 0.364 | 0.388 | 0.525 | 0.383 | 0.717 | 0.474 | 0.203 | 0.22 | 0.331 | 0.333 | 0.379 | 0.409 | 0.365 | 0.579 | 0.608 | 0.284 | 0.287 | 0.175 | 0.365
IA-LM | 0.812 | 0.739 | 0.913 | 0.851 | 0.506 | 1.01 | 0.697 | 1.02 | 0.854 |  |  |  |  |  | 0.394 | 0.325 |  | 0.37 | 0.292 | 0.365

Reference: the supplement of paper PMC10307832
